The source of these data is patent publication US20210348120A1, “Polarised Three-Dimensional Cellular Aggregates” (CAMBRIDGE ENTERPRISE LIMITED, priority 2018, published 2021).

In the assay the test system is gastruloid cardiac portion. The experiment in a line: Calcium imaging of the gastruloid cardiac portion. Type of assay: cell-based, mouse. The following applies: 168 h gastruloids, 1 μM, light sheet imaging with Cal-520. On the procedure:
To image calcium fluxes, gastruloids were incubated for 1 h with 8 μM Cal-520 (AAT Bioquest) at 37° C., 5% CO2. Gastruloids were then transferred to fresh medium before imaging. Imaging was performed with a Light sheet Z1 microscope (Zeiss) equipped with an environmental chamber to maintain gastruloids at 37° C. and 5% CO2. For imaging, gastruloids were embedded in 1% low melt agarose and the chamber was filled with culture medium. Nifidepine (Sigma Aldrich, 10 μM) and Isoproterenol (Isoprenaline hydrochloride, Sigma 15627, 1 μM) were added with a syringe directly to the imaging chamber during acquisition. The analysis of calcium spikes was performed with the Fiji Stacks-plot Z-Axis profile plugin. The baseline intensity was normalized to the minimum value over 10 sec.

Regarding `CC(C)NCC(O)c1ccc(O)c(O)c1` (stereo not shown) [isoproterenol, Isoproterenol], the calcium spiking frequency entry was “increase in spiking frequency”.
